Measured values reported in US8105604B2, “WT1 modified peptide” (International Institute of Cancer Immunology, Inc., priority 2001, dated 2012).
Read-outs that look alike come from different tables or passages of the source. Residues, ends and D or L forms follow the SMILES beside them. No end group written: not given here.

What was measured:
HLA-A*2402 [1] = biological target: T1, HLA-A*2402 (Homo sapiens, UniProt P04439, D101N/D140Y/D185E/E176V/E190D/F33S/G103R/G107R/I119L/I121M/I306V/K335N/L105A/L180Q/L300P/N151K/N90K/Q86E/Q94H/R106L/R138H/R89G/T104I/T345S/V100E/W191G/Y123F); experiment: Binding affinity to HLA-A*2402 on acid-treated C1RA2402 cells (flow cytometry)
Description: After washing the cells with the medium, they were suspended at a concentration of 2×10^6 cells/ml in DMEM medium containing 200 nM β2-microglobulin (Sigma) and 0.5% bovine serum albumin. 15 μl of the cell suspension were mixed with 50 μl of the medium comprising various concentrations of WT1 peptide followed by incubating for 4 hours at room temperature. After washing the cells, they were stained with monoclonal antibody to HLA-A24 labeled with FITC (clone name: 7A12), and the amount of HLA-A24 expressed was analyzed with a flow cytometer FACS system.

[2] = system: RERF-LCAI, LC1sq, 11-18 and LK87 lung cancer cells; experiment: 51Cr release cytotoxicity assay on lung cancer cell lines; type: cell-based; conditions: FIG. 4; E:T 20:1, 4 hours
Description: The cytotoxic activity of effector cells stimulated with WT1 wild peptide or WT1 modified peptide was tested on a cancer cell line associated with lung cancer that endogenously expresses WT1 antigen (target cells) using the ^51Cr release method.

[3] = system: leukemia cells from AML patients (WT1+/A*2402+); experiment: 51Cr release cell killing assay on leukemia cells endogenously expressing WT1 antigen; type: cell-based, human; conditions: FIG. 2, E:T 20:1, 4 hours, AML patient cells WT1+/-
Description: The cell killing activity of effector cells stimulated with WT1 wild peptide or WT1 modified peptide on leukemia cells that endogenously express WT1 antigen was tested according to the ^51Cr release method.

[4] = system: C1R2402 cells pulsed with WT1 wild peptide; experiment: Blocking assay using antibody (51Cr release); type: cell-based; conditions: FIG. 5; E:T 20:1, 4 hours; anti-HLA class I, anti-HLA class II, anti-CD8 antibody
Excerpt: The antibodies used consisted of anti-HLA class I antibody, anti-HLA class II antibody and anti-CD8 antibody.

C1R2402 cells = experiment: Killing assay (51Cr release) by peptide-stimulated effector cells on peptide-pulsed C1R2402 target cells; type: cell-based
Excerpt: FIG. 1 is a graph showing the cell killing effects (specific cytolytic activity) on C1R2402 target cells (T), either pulsed or not pulsed with peptide, by effecter cells (E) stimulated with WT1 wild peptide (Sequence ID No. 2) or the WT1 modified peptide of the present invention (Sequence ID No. 3). In the graph, the black circles indicate the cytolytic effect on C1R2402 target cells pulsed with wild peptide by effecter cells stimulated with WT1 modified peptide, the black squares indicate the cytolytic effect on […] target cells pulsed with wild peptide by effecter cells stimulated with WT1 wild peptide, the white circles indicate the cytolytic effect on C1R2402 target cells not pulsed with wild peptide by effecter cells stimulated with WT1 modified peptide, and the white squares indicate the cytolytic effect on C1R2402 target cells not pulsed with wild peptide by effecter cells stimulated with WT1 wild peptide.
FIG. 3 is a graph showing the cell killing effects (specific cytolytic activity) on C1R2402 target cells, either pulsed or not pulsed with peptide, by effecter cells stimulated with WT1 wild peptide or the WT1 modified peptide of the present invention. […]

[5] = system: peripheral blood mononuclear cells from HLA-A*2402-positive donors; experiment: Stimulation of peripheral blood mononuclear cells with peptide; status of the resulting cells; type: cell-based, human
Description: Peripheral blood mononuclear cells were isolated from HLA-A*2402-positive donors and distributed among the wells of a 24-well plate at 2×10^6 cells/well followed by the addition of WT1 wild peptide or WT1 modified peptide to a concentration of 20 μM and culturing for 1 week. The medium used at this time consisted of 45% RPMI, 45% AIV, 10% FCS 1× non-essential amino acids and SM/PCG. Following the aforementioned culturing, the cells were adjusted to 2×10^6 cells/well and used as responder cells.
On the other hand, other peripheral blood mononuclear cells were similarly isolated from the same HLA-A*2402-positive donors and then peptide-pulsed by culturing for 4 days with one of the aforementioned peptides at 20 μM. After then irradiating at 30 Gy, the cells were adjusted to 4×10^6 cells/well and used as stimulator cells.
The responder cells and stimulator cells prepared in the manner described above were then mixed and then cultured for 1 week following the addition of IL-2 at 50 U/ml.

HLA-A*2402 [6] = biological target: T1, HLA-A*2402; conditions: reported in J. Immunol., 154, 5994, 1995; cited from earlier work
[7] = resulting cells after stimulation with 20 μM peptide and IL-2 50 U/ml

Compound	binding affinity for HLA-A*2402 (comparison) (HLA-A*2402 [1])	Kd (HLA-A*2402 [1]; calculated using pmel 15 antigen peptide as standard, 4 hours at room temperature, read-out: Dissociation constant Kd)	cytotoxic activity of peptide-stimulated effector cells on lung cancer cell lines [2]	cytotoxic activity of peptide-stimulated effector cells on leukemia cells [3]	blocking of cytotoxic activity of peptide-stimulated effector cells by antibodies [4]	cell killing activity (cell lysis) of peptide-stimulated effector cells (C1R2402 cells; Example 1, FIG. 1, E:T ratio 1, 5, 20, C1R2402 target cells pulsed or not pulsed with peptide)	cytotoxic activity of peptide-stimulated effector cells (C1R2402 cells; Example 3, FIG. 3, effector cells from different healthy HLA-A*2402-positive donors)	No. of cells ([5]; PBMC stimulated with 20 μM peptide, responder plus stimulator cells cultured 1 week with IL-2 50 U/ml)	CD4 [5, 7]	CD8 [5, 7]	Kd (HLA-A*2402 [1])	binding to HLA-A*2402 (HLA-A*2402 [6])
CSCC[C@H](NC(=O)[C@H](CCC(N)=O)NC(=O)[C@H](CC(N)=O)NC(=O)[C@H](Cc1c[nH]c2ccccc12)NC(=O)[C@@H](NC(=O)[C@H](Cc1ccc(O)cc1)NC(=O)[C@@H](N)CS)[C@@H](C)O)C(=O)N[C@@H](CC(N)=O)C(=O)N[C@@H](CC(C)C)C(=O)O [WT1 modified peptide, Cys Tyr Thr Trp Asn Gln Met Asn Leu] (H-CYTWNQMNL-OH; N-terminus and C-terminus assumed)	stronger binding affinity for HLA-A*2402 than the WT1 wild peptide	0.64 µM	the level of that activity was higher	the level of that activity was higher	blocked by anti-HLA class I antibody and anti-CD8 antibody	more potent cell killing activity than cells stimulated with WT1 wild peptide	more potent cytotoxic activity than cells stimulated with WT1 wild peptide	3.0 × 10^6/well	18%	38%	–	–
CSCC[C@H](NC(=O)[C@H](CCC(N)=O)NC(=O)[C@H](CC(N)=O)NC(=O)[C@H](Cc1c[nH]c2ccccc12)NC(=O)[C@@H](NC(=O)[C@H](CCSC)NC(=O)[C@@H](N)CS)[C@@H](C)O)C(=O)N[C@@H](CC(N)=O)C(=O)N[C@@H](CC(C)C)C(=O)O [WT1 wild peptide, Cys Met Thr Trp Asn Gln Met Asn Leu, reference compound] (H-CMTWNQMNL-OH)	–	–	demonstrated cytotoxic activity only on the WT1+/A*2402+ cells	demonstrated cytotoxic activity on the WT1+/A*2402 cells	blocked by anti-HLA class I antibody and anti-CD8 antibody	–	–	–	–	–	18.2 µM	–
AYGLDFYIL [melanoma antigen peptide used as standard for the Kd calculation]	–	–	–	–	–	–	–	–	–	–	–	reported to bind to HLA-A*2402
